Here are results for 87 compounds from a melting point compilation (Tetko et al.; mined from patent text by program, amines drawn as free bases though some values may be those of a salt).

On to `CCN1C(=O)N(c2cc(OC)cc(OC)c2)Cc2cnc(S(C)=O)nc21` (configuration not stated), for which the melting point (as a rule, the temperature, or range, at which the solid turns liquid) is 167 to 169 °C.
Regarding `CCCc1ccc2ncc(C(=O)NCc3ccc(Cl)cc3)c(O)c2c1`, the melting point lay within 225 to 227 °C.
Under `Cc1cnn(-c2ccc(C(=O)N3C=C4CC=CN4Cc4ccccc43)cc2)c1` stands 179 to 181 °C; under `O=c1[nH]ncc2cc(Cl)ccc12`, 272 to 273 °C.
With `Cc1c(NC(=O)c2ccc(-c3ccccc3F)cc2)ccc2cc(CN3CCCC3)cnc12`, the melting point lay within 133 to 135 °C.
On to `CN(C=O)c1ccccc1C(=O)COC(=O)c1ccccc1`, for which the melting point lay in the range of 100 to 102 °C.
For `CC(C)(C)OC(=O)N1CCN(c2ccc(-c3[nH]nc4c3C(=O)c3c(NC(=O)NN5CCOCC5)cccc3-4)cc2)CC1` the value was 242 °C; for `COC(C)=CC(=O)Nc1cccc([N+](=O)[O-])c1`, 187 °C.
For `CCCCc1nn(Cc2ccccc2C(=O)O)c(=O)n1Cc1ccc(-c2ccccc2-c2nnn[nH]2)cc1` the value was greater than 106 °C.
`CCCCc1nc2c(N)nc3ccccc3c2n1CCCCS(=O)(=O)c1ccc(F)cc1F` had a melting point of 190 to 193 °C.
`O=C1NCC=NN1c1cc(Cl)cc(Cl)c1`: the melting point was 179 to 181 °C.
For `CC1(C)Cc2c(ccc3c2C(c2cccc(-c4ccc(NC(=O)OCc5ccccc5)cc4)c2)=NCC3(C)C)O1` the value was 126 to 129 °C.
As to `Cc1nc(C)c(-c2[nH]nc3c2C(=O)c2c(NC(=O)NN4CCN(C)CC4)cccc2-3)s1`, the melting point amounted to 278 °C.
For `Cc1oc(-c2ccc(C(F)(F)F)cc2)nc1COc1cccc(Cn2oc(=O)[nH]c2=O)c1` the value was 142 to 143 °C; for `CS(=O)(=O)c1ccc(-c2oc(C(c3ccccc3)c3ccccc3)nc2-c2ccc(F)cc2)cc1`, 155 to 156 °C; for `O=C(NC1CCN(CCc2ccc(Cl)cc2)C1)C12CC3CC(CC(C3)C1)C2` (configuration not stated), 94 to 95 °C.
For `COC(=O)c1ccc(-n2ccc(C)n2)cc1C(F)(F)F` the value was 59 to 61 °C; for `Nc1ncnc2c1ncn2CC/C=C/P(=O)(O)O`, 263 to 266 °C.
`Cc1ccccc1CNC(=O)N1Cc2ccccc2-n2nc(C(C)(C)C)cc21` returned a melting point of 180 to 181 °C.
Under `CN1CCN(CC(=O)N2CC=C(c3cccc(C(F)(F)F)c3)n3ncc(C#N)c32)CC1` stands 178 to 180 °C; under `O=C(O)c1cccc2c(Br)c(O)ccc12`, greater than 225 °C; under `CN(C)C(=O)CCCOC(=O)C(C)(OCc1ccc2ccccc2c1)C(F)(F)F` (configuration not stated), 42 to 43 °C.
For `COc1ccc(N2CCN(C3CCNCC3)C2=O)cc1` the value was 140 °C; for `NNc1cc2c(nn1)CCN(C(=O)c1cccc(Cl)c1)C2`, 178 to 180 °C; for `COc1ccccc1N1CCC(CNC[C@H]2COc3ccccc3O2)CC1`, 78 to 79 °C.
In turn, `O=C(CNN1C(=O)c2ccccc2S1(=O)=O)N[C@@H](Cc1ccccc1)C(=O)O` showed a melting point of 201 to 204 °C.
`COc1ccccc1CN[C@H]1CCCN[C@H]1c1cc(Br)cc(Br)c1` (relative stereo) showed a melting point greater than 240 °C.
`COc1cc2c(cc1Cl)CCN(C)CC2c1ccc(Br)cc1` (configuration not stated) had a melting point of 116 to 118 °C.
For `COC(=O)C(=CC(=CN(C)C)c1cc(OCc2ccccc2)ccc1[N+](=O)[O-])[N+](=O)[O-]` the value was 158 to 165 °C; for `Ic1ccc(-c2cccnc2)cc1`, 112 to 115 °C.
The compound `CC1(C)CCC(C)(C)c2cc(C(=O)c3cccc(I)c3)ccc21` displayed a melting point of 130 to 131 °C.
`CC(C)(C)c1ccc(C(=O)Cc2ccncc2)cc1` showed a melting point of 75 to 76 °C.
Under `N#CCc1cccc(-c2ccc(OCCCC(=O)NO)cc2)c1` stands 140 to 144 °C; under `CSc1cnc(NC(=O)c2cccc(OC(C)=O)c2)s1`, 135 to 136 °C; under `CCCCCCCCc1nc2c(N)nc3ccccc3c2n1CCOCCCc1ccccc1`, 104 °C.
`Nc1nc2ccccc2c2c1nc1n2C(COCc2ccccc2)COC1` (configuration not stated) registered a melting point of 185 to 186 °C.
Regarding `CN(C(=O)c1ccc2nonc2c1)C1CCOCC1`, the melting point fell in the range of 160 to 162 °C.
Compound `CCCn1c(C(=O)OC)cc(=O)c2oc3ccc(Cl)cc3c(=O)c21` registered a melting point of 240 to 244 °C.
Under `CC#CCOc1cc(Oc2ccc(C#N)cc2)ncn1` stands 162 °C; under `O=C(O)c1cccc(Oc2ncccc2OCCCc2ccncc2)c1`, 208 to 209 °C.
For `O=C(NCC12CC3CC(CC(C3)C1)C2)c1cc(-c2ccc(Cl)cc2C(=O)O)ccc1Cl` the value was 207 to 210 °C.
Under `Nc1c(Cl)cc(C(O)CNCCCCCCOCCCCc2ncccc2O)cc1Cl` (configuration not stated) stands 95 to 96 °C.
`C[C@H]1Oc2ccc(Br)cc2C(=O)N2CCCC[C@@H]12` (racemic) came in with a melting point of 105 to 106 °C.
On to `O=C(NCCc1ccccc1)c1cc2c(cn1)[nH]c1ccccc12`, for which the melting point was 297 to 298 °C.
Under `CCC(Oc1cc(N)c(Cl)cc1C(=O)NCCN(CC)CC)C(C)=O` (configuration not stated) stands 75 to 78 °C; under `CCCC(=O)c1cnc2c(OCCCN(C)Cc3ccccc3)cccc2c1Nc1ccccc1C`, 100 to 102 °C.
For `CCc1oc(C(O)(C(F)(F)F)C(F)(F)F)nc1-c1ccc(S(C)(=O)=O)cc1` the value was 92 to 93 °C.
`N#Cc1ccc(-c2cncc(OC3SCC(O)C(O)C3O)c2)cc1F` (configuration not stated) registered a melting point of 214 °C.
As for `CC1CC(=O)NN=C1c1ccc(-n2ccc(=O)cc2)cc1` (configuration not stated), the melting point was 254 to 256 °C.
Under `CCOC(=O)c1c(O)c2cc(F)ccc2n(Cc2ccccc2)c1=O` stands 129 °C.
Under `CC(C)OC(=O)N1CCC(c2nc3cc(-c4ccc(C=O)cc4)ccc3o2)CC1` stands 167 to 170 °C; under `CC(C)(C)[S@@](=O)/N=C/c1cc(F)cc(C#N)c1`, 93 to 99 °C; under `O=C(O)COc1nnc(-c2ccc3c(c2)CCO3)o1`, 151 to 153 °C.
For `Cc1cc(-c2ccc(S(N)(=O)=O)cc2)n(-c2ccc(C)c(C)c2)c1` the value was 118 to 120 °C; for `Cc1cc(Nc2ccnc(Nc3ccc(S(=O)(=O)N(C)C4CCN(Cc5cccn5C)CC4)cc3)n2)ccc1F`, 159 to 160 °C.
`CN(C)C(=N)CSc1nnc(S)s1` showed a melting point of 95 to 97 °C.
Under `CCC1(CCCCN2CCN(c3ccccn3)CC2)C(=O)Nc2ccc(C)cc21` (configuration not stated) stands 168 to 170 °C; under `CC(C)c1cccc(C(C)C)c1OC(=O)c1ccccc1`, 80 to 81 °C; under `NS(=O)(=O)c1cc2cnccc2o1`, 216 to 218 °C.
For the compound `O=C(COc1ccc([N+](=O)[O-])cc1)NCc1ccccc1`, the melting point was in the range of 125 to 126 °C.
Under `COC(CCCNc1ccc(-c2nc(=O)c3ccccc3s2)cn1)OC` stands 157 to 158 °C.
Under `CS(=O)(=O)c1ccc(-c2nn(Cc3ccccc3)c(=O)cc2-c2ccccc2)cc1` stands 211 to 212 °C.
Under `CC(COC(=O)C(=O)Nc1nc(-c2ccccc2)cs1)c1ccccc1` (configuration not stated) stands 140 to 141 °C; under `O=C(O)c1cc(NCCc2ccc([N+](=O)[O-])cc2)ccc1O`, 234 to 236 °C.
The compound `C=Cc1c2c(c(C)c(C)c1N1CCN(c3ccc(OC)cc3)CC1)OC(C)(C)C2=O` displayed a melting point of 147 to 148 °C.
The compound `CN(C(=O)c1ccc2nonc2c1)[C@H]1CC[C@H](N=[N+]=[N-])CC1` showed a melting point of 149 to 150 °C.
On to `COc1nc2cc(Cl)c(Cl)c(-c3nnnn3CCCO)c2nc1OC`, for which the melting point was 188 to 189 °C.
For `COc1ccc(C(=O)c2cc3cc(Br)ccc3o2)cc1` the value was 143 to 146 °C; for `O=C(O)CCC/C=C\[C@@H]1C[C@@H](NS(=O)(=O)c2ccc(Cl)cc2)CN1S(=O)(=O)c1ccc(Cl)cc1`, 111 to 113 °C.
`C=Cc1c(NC(C)=O)cc(-c2ccc(Cl)c(OC)c2F)nc1C(=O)OC` displayed a melting point of 143 to 145 °C.
For `CC(=O)c1ccc(NC(=O)C=C(c2ccc(Cl)cc2)c2ccc(Cl)cc2)cc1` the value was 213 to 215 °C; for `CCOC(Cc1ccc(OCCN2CCOc3ccccc32)cc1)C(=O)NC` (configuration not stated), 97 to 99 °C; for `CN1CCN(c2cccc(Oc3cc(=O)[nH]c4ccccc34)c2)CC1`, 218 to 221 °C.
For `CCCc1cc2cc(O)ccc2c(Oc2ccc(/C=C/C(=O)O)cc2)c1-c1ccccc1` the value was 120 to 122 °C; for `COC1CCCCC1n1nnc2c([N+](=O)[O-])cccc21` (configuration not stated), 134 to 136 °C.
`COc1cccc(OC)c1-c1cc(C(=O)NC2(C(=O)O)C3CC4CC(C3)CC2C4)nn1-c1ccnc2cc(Cl)ccc12` (configuration not stated) gave a melting point greater than 260 °C.
Under `CCCCCCCCCCCCOCCCNC(=O)c1cc(OCC(=O)O)c2ccccc2c1O` stands 150 °C.
On to `O=C(Cl)c1ccc(CBr)cc1`, for which the melting point lay in the range of 56 to 58 °C.
In turn, `COc1ccc(Sc2nc(-c3ccc(OC)cc3)cnc2N)cc1` gave a melting point of 149 to 151 °C.
`C=C=C(C)C1Oc2cccc(OC)c2-c2ccc3c(c21)C(C)=CC(C)(C)N3` (configuration not stated) had a melting point of 59 to 63 °C.
`CCOC(=O)c1nccc(N)n1` displayed a melting point of 101 to 104 °C.
Compound `Nc1cnn(-c2cccc(C(F)(F)F)c2)c(=O)c1-c1cccc(C(F)(F)F)c1` displayed a melting point of 68 to 70 °C.
For the compound `COc1cc2cc(C3=NNC(=O)CC3)sc2cc1OC`, the melting point fell in the range of 254 to 256 °C.
Under `COCC1CN(c2ccc(OCCCC3(C)OC(COS(=O)(=O)c4ccc(C)cc4)C(COS(=O)(=O)c4ccc(C)cc4)O3)cc2)C(=O)O1` (configuration not stated) stands 104 °C.
For `CC(=N)Nc1ccccc1N1CCOCC1` the value was 140 to 141 °C.
The compound `CC(C)OCCNC(=O)c1ccn2nc(-c3ccccc3)c(-c3ccc(=O)n(C(C)C)n3)c2c1` displayed a melting point of 124 to 125 °C.
For `O=C(O)Cc1ccc2c(c1)C(=O)c1cccc(Cl)c1CO2` the value was 173 to 176 °C.
